Data as given in patent publication US8420695B2, “Inhibitors of janus kinases” (Merck Sharp & Dohme Corp., priority 2008, dated 2013).

Biological target: T1, recombinant JAK2 (JAK2 JH1 domain) (Homo sapiens, UniProt O60674)
T1 construct: 50 nM JAK2 JH1 domain (Upstate); purchased Upstate
Assay: JAK2 Kinase Activity Inhibition Assay and Determination of IC50 (HTRF)
Type: biochemical
Conditions: 50 nM JAK2 JH1 domain, 15 μM MgATP, 80 min at room temperature
Method: JAK2 Kinase Activity Inhibition Assay and Determination of IC50
The kinase activity was measured using a modified version of the homogeneous time-resolved tyrosine kinase assay described in Park et al. Anal. Biochem. 269, 94-104 (1999).
IC50 was obtained by fitting the observed relationship between compound/inhibitor concentration and HTRF signal with a 4-parameter logistic equation.

T1 sequence (O60674 849-1124 limits assumed): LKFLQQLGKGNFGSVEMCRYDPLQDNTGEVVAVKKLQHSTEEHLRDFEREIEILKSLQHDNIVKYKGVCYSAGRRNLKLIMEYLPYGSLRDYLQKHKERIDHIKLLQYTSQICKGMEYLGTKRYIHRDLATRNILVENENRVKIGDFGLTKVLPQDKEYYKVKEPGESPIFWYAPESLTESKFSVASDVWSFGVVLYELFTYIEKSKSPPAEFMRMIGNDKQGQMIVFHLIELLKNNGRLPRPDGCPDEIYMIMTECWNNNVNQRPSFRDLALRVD

Row | SMILES | IC50
1 | CN(C)C(=O)c1ccc(Nc2sc(-c3c(F)cc(C(C)(C)O)cc3F)cc2C(N)=O)cc1 [Example 5, 5-[2,6-difluoro-4-(1-hydroxy-1-methylethyl)-phenyl]-2-({4-[(dimethylamino)carbonyl]phenyl}amino)thiophene-3-carboxamide] | 21 nM
2 | Cc1noc(-c2ccc(Nc3sc(-c4c(F)cc(C(C)(C)O)cc4F)cc3C(N)=O)cc2)n1 [Example 9, 5-[2,6-difluoro-4-(1-hydroxy-1-methylethyl)-phenyl]-2-{[4-(3-methyl-1,2,4-oxadiazol-5-yl)phenyl]amino} thiophene-3-carboxamide] | 1400 nM
3 | CC(C)(O)c1ccc(-c2cc(C(N)=O)c(Nc3cccnc3)s2)cc1 [Example 10, 5-(4-(1-Hydroxy-1-methylethyl)phenyl)-2-(3-pyridinylamino)-3-thiophenecarboxamide] | 220 nM
4 | CC(=O)c1ccc(Nc2sc(-c3c(F)cc(C(C)(C)O)cc3F)cc2C(N)=O)cc1 [Example 11, 2-[(4-acetylphenyl)amino]-5-[2,6-difluoro-4-(1-hydroxy-1-methylethyl)phenyl]thiophene-3-carboxamide] | 110 nM
5 | NC(=O)c1cc(-c2ccccc2)sc1Nc1cncnc1 [Example 19, 5-Phenyl-2-(pyrimidin-5-ylamino)-thiophene-3-carboxamide] | 2600 nM
6 | NC(=O)c1cc(-c2ccccc2)sc1Nc1ccncc1 [Example 20, 5-Phenyl-2-(pyridin-4-ylamino)-thiophene-3-carboxamide] | 180 nM
7 | CC(C)(O)c1cc(F)c(-c2cc(C(N)=O)c(Nc3ccc(CO)cc3)s2)c(F)c1 [Example 22, 5-[2,6-difluoro-4-(1-hydroxy-1-methylethyl)-phenyl]-2-{[4-(hydroxymethyl)-phenyl]amino}-thiophene-3-carboxamide] | 170 nM
8 | CN(C)Cc1ccc(Nc2sc(-c3c(F)cc(C(C)(C)O)cc3F)cc2C(N)=O)cc1 [Example 26, 5-[2,6-difluoro-4-(1-hydroxy-1-methylethyl)-phenyl]-2-({4-[(dimethylamino)methyl]phenyl}-amino)-thiophene-3-carboxamide] | 22 nM
9 | CC(C)(O)c1cc(F)c(-c2cc(C(N)=O)c(Nc3ccc(S(=O)(=O)N4CCOCC4)cc3)s2)c(F)c1 [Example 28, 5-[2,6-difluoro-4-(1-hydroxy-1-methylethyl)phenyl]-2-{[4-(morpholin-4-ylsulfonyl)phenyl]amino}thiophene-3-carboxamide] | 56 nM
10 | CN(C)S(=O)(=O)c1ccc(Nc2sc(-c3c(F)cc(C(C)(C)O)cc3F)cc2C(N)=O)cc1 [Example 29, 5-[2,6-difluoro-4-(1-hydroxy-1-methylethyl)-phenyl]-2-({4-[(dimethylamino)sulfonyl]phenyl}-amino)-thiophene-3-carboxamide] | 44 nM
11 | CC(C)(O)c1cc(F)c(-c2cc(C(N)=O)c(Nc3ccc(NS(C)(=O)=O)cc3)s2)c(F)c1 [Example 31, 5-[2,6-difluoro-4-(1-hydroxy-1-methylethyl)phenyl]-2-({4-[(methylsulfonyl)amino]phenyl}amino)thiophene-3-carboxamide] | 56 nM

Next, values leading:

Row | IC50 | SMILES
12 | 47 nM | CC(C)(O)c1cc(F)c(-c2cc(C(N)=O)c(Nc3ccc(S(C)(=O)=O)cc3)s2)c(F)c1 [Example 1, 5-[2,6-difluoro-4-(1-hydroxy-1-methylethyl)phenyl]-2-{[4-(methylsulfonyl)phenyl]amino}thiophene-3-carboxamide]
13 | 220 nM | CS(=O)(=O)c1ccc(Nc2sc(-c3ccc(Cl)cc3)cc2C(N)=O)cc1 [Example 2, 5-(4-chlorophenyl)-2-{[4-(methylsulfonyl)-phenyl]amino}thio-phene-3-carboxamide]
14 | 32 nM | CNC(=O)c1ccc(Nc2sc(-c3c(F)cc(C(C)(C)O)cc3F)cc2C(N)=O)cc1 [Example 4, 5-[2,6-difluoro-4-(1-hydroxy-1-methylethyl)-phenyl]-2-({4-[(methylamino)-carbonyl]phenyl}-amino)thiophene-3-carboxamide]
15 | 120 nM | CC(C)(O)c1cc(F)c(-c2cc(C(N)=O)c(Nc3ccncc3)s2)c(F)c1 [Example 6, 5-[2,6-difluoro-4-(1-hydroxy-1-methylethyl)-phenyl]-2-(pyridin-4-ylamino)thio-phene-3-carboxamide]
16 | 75 nM | CC(C)(O)c1cc(F)c(-c2cc(C(N)=O)c(Nc3ccnc(CO)c3)s2)c(F)c1 [Example 7, 5-[2,6-difluoro-4-(1-hydroxy-1-methylethyl)-phenyl]-2-{[2-(hydroxymethyl)-pyridin-4-yl]amino}thio-phene-3-carboxamide]
17 | 29 nM | CC(C)(O)c1ccc(Nc2sc(-c3c(F)cc(C(C)(C)O)cc3F)cc2C(N)=O)cc1 [Example 12, 5-[2,6-difluoro-4-(1-hydroxy-1-methylethyl)phenyl]-2-{[4-(1-hydroxy-1-methylethyl)phenyl]amino}thiophene-3-carboxamide]
18 | 21 nM | CC(C)(O)c1cc(F)c(-c2cc(C(N)=O)c(Nc3ccc(C(=O)N4CCOCC4)cc3)s2)c(F)c1 [Example 14, 5-[2,6-difluoro-4-(1-hydroxy-1-methylethyl)phenyl]-2-{[4-(morpholin-4-ylcarbonyl)phenyl]amino}thiophene-3-carboxamide]
19 | 1000 nM | NC(=O)c1cc(-c2ccccc2)sc1Nc1ccccc1 [Example 17, 2-Anilino-5-phenylthiophene-3-carboxamide]
20 | 320 nM | NC(=O)c1cc(-c2ccccc2)sc1Nc1cccnc1 [Example 18, 5-Phenyl-2-(pyridin-3-ylamino)-thiophene-3-carboxamide]
21 | 490 nM | CC(C)(O)c1cc(F)c(-c2cc(C(N)=O)c(Nc3ccccc3)s2)c(F)c1 [Example 21, 2-anilino-5-[2,6-difluoro-4-(1-hydroxy-1-methylethyl)phenyl]thiophene-3-carboxamide]
22 | 42 nM | CC(C)(O)c1cc(F)c(-c2cc(C(N)=O)c(Nc3ccc(CN4CCOCC4)cc3)s2)c(F)c1 [Example 23, 5-[2,6-difluoro-4-(1-hydroxy-1-methylethyl)-phenyl]-2-{[4-(morpholin-4-ylmethyl)-phenyl]amino}-thiophene-3-carboxamide]
23 | 410 nM | CC(C)(O)c1cc(F)c(-c2cc(C(N)=O)c(Nc3ccc(C=O)cc3)s2)c(F)c1 [Example 24, 5-[2,6-difluoro-4-(1-hydroxy-1-methylethyl)phenyl]-2-[(4-formylphenyl)amino]thiophene-3-carboxamide]
24 | 26 nM | CC(C)(O)c1cc(F)c(-c2cc(C(N)=O)c(Nc3ccc(CN4CCS(=O)(=O)CC4)cc3)s2)c(F)c1 [Example 25, 5-[2,6-difluoro-4-(1-hydroxy-1-methylethyl)phenyl]-2-({4-[(1,1-dioxidothiomorpholin-4-yl)methyl]phenyl}amino)thiophene-3-carboxamide]
